Assay results taken from ChEMBL document CHEMBL1201862, “PubChem BioAssay data set” (2004).
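Assay format: 96-well plates, 48-hour exposure. GI50: concentration for 50% inhibition of growth.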 Active and inactive are the calls of the source. No stated cut-off is given here; in the data, active = GI50 up to about 1.1 µM and inactive = higher.

Tests used:
Experiment in all cases: NCI anticancer screen, dose series, 48 h
786-0 = test system: 786-0
A498 = test system: A498
A549 = test system: A549
ACHN = test system: ACHN
BT-549 = test system: BT-549
CAKI-1 = test system: CAKI-1
CCRF-CEM = test system: CCRF-CEM
COLO 205 = test system: COLO 205
EKVX = test system: EKVX
HCC 2998 = test system: HCC 2998
HCT-15 = test system: HCT-15
HOP-62 = test system: HOP-62
HOP-92 = test system: HOP-92
HT-29 = test system: HT-29
Hs-578T = test system: Hs-578T
IGROV-1 = test system: IGROV-1
KM12 = test system: KM12
LOX IMVI = test system: LOX IMVI
M14 = test system: M14
MCF7 = test system: MCF7
MDA-MB-231 = test system: MDA-MB-231
MDA-MB-435 = test system: MDA-MB-435
MOLT-4 = test system: MOLT-4
Malme-3M = test system: Malme-3M
NCI-H23 = test system: NCI-H23
NCI-H460 = test system: NCI-H460
NCI-H522 = test system: NCI-H522
NCI/ADR-RES = test system: NCI/ADR-RES
OVCAR-5 = test system: OVCAR-5
OVCAR-8 = test system: OVCAR-8
PC-3 = test system: PC-3
RPMI-8226 = test system: RPMI-8226
SF-539 = test system: SF-539
SK-MEL-28 = test system: SK-MEL-28
SK-MEL-5 = test system: SK-MEL-5
SK-OV-3 = test system: SK-OV-3
SN12C = test system: SN12C
SNB-19 = test system: SNB-19
SNB-75 = test system: SNB-75
SR = test system: SR
SW-620 = test system: SW-620
TK-10 = test system: TK-10
U-251 = test system: U-251
UACC-257 = test system: UACC-257
UACC-62 = test system: UACC-62
UO-31 = test system: UO-31
DU-145 = test system: DU-145
HCT-116 = test system: HCT-116
HL-60 = test system: HL-60
K562 = test system: K562
NCI-H226 = test system: NCI-H226
OVCAR-3 = test system: OVCAR-3
OVCAR-4 = test system: OVCAR-4
SF-268 = test system: SF-268
SK-MEL-2 = test system: SK-MEL-2
T47D = test system: T47D
RXF 393 = test system: RXF 393
SF-295 = test system: SF-295

Nc1ccc2nc(-c3cccc(C(F)(F)F)c3)cc(O)c2c1
GI50 (786-0): 44.7 µM (inactive) | GI50 (A498): 29.1 µM (inactive) | GI50 (A549): 71.4 µM (inactive) | GI50 (ACHN): 80.2 µM (inactive) | GI50 (BT-549): 23.6 µM (inactive) | GI50 (CAKI-1): 29.6 µM (inactive) | GI50 (CCRF-CEM): 28.8 µM (inactive) | GI50 (COLO 205): 27.2 µM (inactive) | GI50 (EKVX): 44.7 µM (inactive) | GI50 (HCC 2998): 60.1 µM (inactive) | GI50 (HCT-15): 34.8 µM | GI50 (HOP-62): 47.2 µM (inactive) | GI50 (HOP-92): > 100 µM (inactive) | GI50 (HT-29): 34.1 µM (inactive) | GI50 (Hs-578T): 28.9 µM (inactive) | GI50 (IGROV-1): 33.5 µM (inactive) | GI50 (KM12): 36.2 µM (inactive) | GI50 (LOX IMVI): 51.9 µM (inactive) | GI50 (M14): 59.6 µM (inactive) | GI50 (MCF7): 28.2 µM (inactive) | GI50 (MDA-MB-231): 50.7 µM (inactive) | GI50 (MDA-MB-435): 20.3 µM (inactive) | GI50 (MOLT-4): 40.4 µM (inactive) | GI50 (Malme-3M): 40.6 µM (inactive) | GI50 (NCI-H23): 54.6 µM (inactive) | GI50 (NCI-H460): 29.8 µM (inactive) | GI50 (NCI-H522): 61.8 µM (inactive) | GI50 (NCI/ADR-RES): 92.9 µM (inactive) | GI50 (OVCAR-5): 43.2 µM (inactive) | GI50 (OVCAR-8): 47 µM (inactive) | GI50 (PC-3): 23.8 µM (inactive) | GI50 (RPMI-8226): 38.5 µM (inactive) | GI50 (SF-539): 19.6 µM (inactive) | GI50 (SK-MEL-28): 53.5 µM (inactive) | GI50 (SK-MEL-5): 22.9 µM (inactive) | GI50 (SK-OV-3): 44.8 µM (inactive) | GI50 (SN12C): 61.8 µM (inactive) | GI50 (SNB-19): 46.1 µM (inactive) | GI50 (SNB-75): 27.3 µM (inactive) | GI50 (SR): 25.1 µM (inactive) | GI50 (SW-620): 62.1 µM (inactive) | GI50 (TK-10): 58.2 µM (inactive) | GI50 (U-251): 49.3 µM (inactive) | GI50 (UACC-257): 51.2 µM (inactive) | GI50 (UACC-62): 53.2 µM (inactive) | GI50 (UO-31): 37.4 µM (inactive)

COc1cc(C2SCC(=O)N2c2ccc(-c3ccc(-n4c(-c5ccccc5)nc5ccccc5c4=O)cc3)cc2)cc(OC)c1OC (configuration not stated)
GI50 (786-0): 16.2 µM (inactive) | GI50 (A498): 44.3 µM (inactive) | GI50 (A549): 24.6 µM (inactive) | GI50 (ACHN): 16.6 µM (inactive) | GI50 (BT-549): 17.3 µM (inactive) | GI50 (CAKI-1): 19.1 µM (inactive) | GI50 (CCRF-CEM): 10.6 µM (inactive) | GI50 (COLO 205): 54.1 µM (inactive) | GI50 (DU-145): 78 µM (inactive) | GI50 (EKVX): 37.5 µM (inactive) | GI50 (HCC 2998): 55.2 µM (inactive) | GI50 (HCT-116): 13.1 µM (inactive) | GI50 (HCT-15): 28.6 µM | GI50 (HL-60): 22.3 µM (inactive) | GI50 (HOP-62): 23.3 µM (inactive) | GI50 (HOP-92): 50.7 µM (inactive) | GI50 (HT-29): 33.3 µM (inactive) | GI50 (Hs-578T): 20 µM (inactive) | GI50 (IGROV-1): 19 µM (inactive) | GI50 (K562): 13.6 µM (inactive) | GI50 (KM12): 12.6 µM (inactive) | GI50 (LOX IMVI): 2.21 µM (inactive) | GI50 (M14): 20.5 µM (inactive) | GI50 (MCF7): 26.2 µM (inactive) | GI50 (MDA-MB-231): 15.6 µM (inactive) | GI50 (MDA-MB-435): 21.8 µM (inactive) | GI50 (MOLT-4): 21.1 µM (inactive) | GI50 (Malme-3M): 31.7 µM (inactive) | GI50 (NCI-H226): > 100 µM (inactive) | GI50 (NCI-H23): 73.1 µM (inactive) | GI50 (NCI-H460): 27.5 µM (inactive) | GI50 (NCI-H522): 13.4 µM (inactive) | GI50 (NCI/ADR-RES): 29.2 µM (inactive) | GI50 (OVCAR-3): 18.5 µM (inactive) | GI50 (OVCAR-4): 10.4 µM (inactive) | GI50 (OVCAR-5): > 100 µM (inactive) | GI50 (OVCAR-8): 43.4 µM (inactive) | GI50 (PC-3): 11.4 µM (inactive) | GI50 (RPMI-8226): > 100 µM (inactive) | GI50 (SF-268): 63 µM (inactive) | GI50 (SF-539): 30.3 µM (inactive) | GI50 (SK-MEL-28): 21.9 µM (inactive) | GI50 (SK-MEL-2): 22.2 µM (inactive) | GI50 (SK-MEL-5): 22.4 µM (inactive) | GI50 (SK-OV-3): 57.3 µM (inactive) | GI50 (SN12C): 81.5 µM (inactive) | GI50 (SNB-19): 26.5 µM (inactive) | GI50 (SR): 23.1 µM (inactive) | GI50 (SW-620): 17.3 µM (inactive) | GI50 (T47D): 24.8 µM (inactive) | GI50 (TK-10): 63.1 µM (inactive) | GI50 (U-251): 22.2 µM (inactive) | GI50 (UACC-257): 8.04 µM (inactive) | GI50 (UACC-62): 21.2 µM (inactive) | GI50 (UO-31): 25.2 µM (inactive)

C/C(=C\COP(=O)(O)OP(=O)(O)O)CCCCCCOCc1ccccc1
GI50 (786-0): > 100 µM (inactive) | GI50 (A498): > 100 µM (inactive) | GI50 (A549): > 100 µM (inactive) | GI50 (ACHN): > 100 µM (inactive) | GI50 (BT-549): > 100 µM (inactive) | GI50 (CAKI-1): > 100 µM (inactive) | GI50 (CCRF-CEM): > 100 µM (inactive) | GI50 (COLO 205): > 100 µM (inactive) | GI50 (DU-145): > 100 µM (inactive) | GI50 (EKVX): > 100 µM (inactive) | GI50 (HCC 2998): > 100 µM (inactive) | GI50 (HCT-116): > 100 µM (inactive) | GI50 (HCT-15): > 100 µM | GI50 (HL-60): > 100 µM (inactive) | GI50 (HOP-62): > 100 µM (inactive) | GI50 (HOP-92): > 100 µM (inactive) | GI50 (HT-29): > 100 µM (inactive) | GI50 (Hs-578T): > 100 µM (inactive) | GI50 (IGROV-1): > 100 µM (inactive) | GI50 (K562): > 100 µM (inactive) | GI50 (KM12): > 100 µM (inactive) | GI50 (LOX IMVI): > 100 µM (inactive) | GI50 (M14): > 100 µM (inactive) | GI50 (MCF7): > 100 µM (inactive) | GI50 (MDA-MB-231): > 100 µM (inactive) | GI50 (MDA-MB-435): > 100 µM (inactive) | GI50 (MOLT-4): > 100 µM (inactive) | GI50 (Malme-3M): > 100 µM (inactive) | GI50 (NCI-H226): > 100 µM (inactive) | GI50 (NCI-H23): > 100 µM (inactive) | GI50 (NCI-H460): > 100 µM (inactive) | GI50 (NCI-H522): > 100 µM (inactive) | GI50 (NCI/ADR-RES): > 100 µM (inactive) | GI50 (OVCAR-3): > 100 µM (inactive) | GI50 (OVCAR-4): > 100 µM (inactive) | GI50 (OVCAR-5): > 100 µM (inactive) | GI50 (OVCAR-8): > 100 µM (inactive) | GI50 (RPMI-8226): > 100 µM (inactive) | GI50 (RXF 393): > 100 µM (inactive) | GI50 (SF-268): > 100 µM (inactive) | GI50 (SF-295): > 100 µM (inactive) | GI50 (SF-539): > 100 µM (inactive) | GI50 (SK-MEL-28): > 100 µM (inactive) | GI50 (SK-MEL-5): > 100 µM (inactive) | GI50 (SK-OV-3): > 100 µM (inactive) | GI50 (SN12C): > 100 µM (inactive) | GI50 (SNB-19): > 100 µM (inactive) | GI50 (SNB-75): > 100 µM (inactive) | GI50 (SR): > 100 µM (inactive) | GI50 (SW-620): > 100 µM (inactive) | GI50 (T47D): > 100 µM (inactive) | GI50 (TK-10): > 100 µM (inactive) | GI50 (U-251): > 100 µM (inactive) | GI50 (UACC-257): > 100 µM (inactive) | GI50 (UACC-62): > 100 µM (inactive) | GI50 (UO-31): > 100 µM (inactive)
